Measurements: patent publication US9469831B2, “Lactobacillus plantarum cells with improved resistance to high concentrations of ethanol” (Chr. Hansen A/S, priority 2011, dated 2016)
≈ marks a conversion by molar mass, not a printed value.

Tests used:
[1] = test system: Lactobacillus plantarum CHCC14254; assay: D-cycloserine resistance assay (OD600 growth in GJ-5 medium); assay type: cell-based; conditions: Lactiplantibacillus plantarum, strain CHCC14254, 24 hours growth at 18° C., vs 0 μg/ml D-cycloserine, read-out: amount of D-cycloserine that reduces the OD600 measured growth with 50%
Method: (§1) Medium: The medium is the known Grape Juice GJ-5 medium described in column 20, lines 10 to 20 of U.S. Pat. No. 7,112,346 (Chr. Hansen A/S).
(§2) As described in lines 10 to 20 of U.S. Pat. No. 7,112,346—the GJ-5 medium has the following composition: • Grape juice concentrate 70.0 g • Yeast paste 30.0 g • Tween 80 0.5 g • MnSO4H2O 0.1 g • Tap water 900.0 g
(§3) A Lactobacillus plantarum strain of interest is inoculated into 10 ml GJ-5 medium containing one of the following amounts of D-cycloserine: 0 μg/ml, 10 μg/ml, 20 μg/ml, 30 μg/ml, 50 μg/ml, 70 μg/ml, 100 μg/ml, 150 μg/ml or 200 μg/ml of D-cycloserine. The strain is grown 24 hours at 18° C. in the GJ-5 medium with the different concentrations of D-cycloserine.
(§4) After the 24 hours growth is OD600 measured for all samples.

[2] = test system: Lactobacillus plantarum CHCC14158; assay: as above; assay type: cell-based; conditions: Lactiplantibacillus plantarum, strain CHCC14158, 24 hours growth at 18° C., vs 0 μg/ml D-cycloserine, read-out: amount of D-cycloserine that reduces the OD600 measured growth with 50%
Method: as §1, §2, §3, §4

[3] = test system: Lactobacillus plantarum CHCC14255; assay: as above; assay type: cell-based; conditions: Lactiplantibacillus plantarum, strain CHCC14255, 24 hours growth at 18° C., vs 0 μg/ml D-cycloserine, read-out: amount of D-cycloserine that reduces the OD600 measured growth with 50%
Method: as §1, §2, §3, §4

[4] = test system: Lactobacillus plantarum CHCC14254; conditions: strain CHCC14254; GJ-5 medium with 11% ethanol, 3 days incubation at 25° C.
Method: (§5) Medium: The medium is the standard GJ-5 medium as used in Example 1 above.
(§6) A Lactobacillus plantarum cell that has an improved resistance towards ethanol as discussed herein—is herein defined as a Lactobacillus plantarum cell that can grow to an OD600 of at least 0.8 after 3 days incubation at 25° C. in the GJ-5 medium with 11% ethanol.

[5] = test system: Lactobacillus plantarum CHCC14158; conditions: strain CHCC14158; GJ-5 medium with 11% ethanol, 3 days incubation at 25° C.
Method: as §5, §6

[6] = test system: Lactobacillus plantarum CHCC14255; conditions: strain CHCC14255; GJ-5 medium with 11% ethanol, 3 days incubation at 25° C.
Method: as §5, §6

SMILES	IC50 [1] [µg/mL]	IC50 [2] [µg/mL]	IC50 [3] [µg/mL]	OD600 reached by growth in presence of ethanol [4]	OD600 reached by growth in presence of ethanol [5]	OD600 reached by growth in presence of ethanol [6]
N[C@@H]1CON=C1O [D-cycloserine, D-4-amino-isoxazolidone]	~100 (≈ 979 µM)	60 to 65 (≈ 588 to 637 µM)	~100 (≈ 979 µM)	–	–	–
CCO [ethanol]	–	–	–	at least 0.8	around 0.65	more than 1
